Experiments:
mitochondria = experiment: mPT-mediated cytochrome c release from mitochondria; type: biochemical
Text: (§1) The cell line of the invention can further be used in a method for assessing toxicity of chemicals or drugs using methods known in the art. For example, lactate dehydrogenase (LDH) leakage from cells into the culture medium is an established method to assess cell injury. Enzyme activity in the culture medium following exposure of cells to a chemical for a certain time will be expressed as percentage of the total of intra- and extracellular enzyme activity. Another example is the determination of cytochrome c release from mitochondria into the cytosol, which is a measure of mitochondria-mediated induction of lethal cell injury. Cells can be exposed to various concentrations of a chemical for various time points. The cells can then be harvested, homogenized, and mitochondria and cytosol isolated by differential centrifugation. The subcellular fractions can then be lysed, loaded onto SDS-PAGE gels, and probed with a specific antibody against cytochrome c.
Both LEF and A77-1726 attenuated the ΔΨm (at ≧1 uM).

mouse liver mitochondria = experiment: Mitochondrial inner transmembrane potential (ΔΨm), JC-1 probe, isolated liver mitochondria; type: biochemical; settings: in vitro
Experimental: To explore whether LEF (the prodrug) or its active metabolite […]-1726 alter mitochondrial function including the Ca^2+ dependent, cyclosporine A-sensitive mPT, we isolated mouse liver mitochondria and exposed them to LEF or […]-1726, and measured the concentration-dependent effects on the mitochondrial inner transmembrane potential (ΔΨm) using the cationic fluorescent probe, JC-1. Furthermore, the effects on the inductin of the mPT were assessed by monitoring large amplitude swelling at 540 nm.

HC04 cell line = experiment: Acetaminophen-induced mPT-associated cytotoxicity in cultured immortalized human hepatocytes; type: cell-based
Experimental: Furthermore, the effects on the inductin of the mPT were assessed by monitoring large amplitude swelling at 540 nm. In addition, the effects of LEF were determined in cultured immortalized human hepatocytes (HC04 cell line).

[1] = test system: mitochondrial permeability transition pore; experiment: Membrane permeability transition (mPT), large amplitude swelling at 540 nm, isolated liver mitochondria; type: biochemical, mouse
Experimental: To explore whether LEF (the prodrug) or its active metabolite A77-1726 alter mitochondrial function including the Ca^2+ dependent, cyclosporine A-sensitive mPT, we isolated mouse liver mitochondria and exposed them to LEF or A77-1726, and measured the concentration-dependent effects on the mitochondrial inner transmembrane potential (ΔΨm) using the cationic fluorescent probe, JC-1. Furthermore, the effects on the inductin of the mPT were assessed by monitoring large amplitude swelling at 540 nm. In addition, the effects of LEF were determined in cultured immortalized human hepatocytes (HC04 cell line).

HepG2 cells = type: cell-based, human
Text: as §1
To determine whether HC04 cells would respond to a standard hepatotoxicant in vitro, the concentration- and time-dependent toxicity of acetaminophen (APAP) was assessed and compared to that in HepG2 cells.

| SMILES | protection from mPT-mediated cytochrome c release from mitochondria (mitochondria) | uncoupling (summary) (mouse liver mitochondria) | protection from acetaminophen-induced mPT-associated cytotoxicity (HC04 cell line) | inhibition of the mPT (summary) ([1]; in vitro) | protection from the mPT ([1]; mPT caused by KH2PO4 (2 mM)) | protection from the mPT ([1]; mPT caused by nimesulide (30 uM)) | LDH release (indicative of cell injury) (HepG2 cells) |
| --- | --- | --- | --- | --- | --- | --- | --- |
| Cc1oncc1C(=O)Nc1ccc(C(F)(F)F)cc1 [LEF, Leflunomide] | protected | weak uncouplers | completely protected | potent inhibitors | completely protected | completely protected |  |
| CC(=O)Nc1ccc(O)cc1 [APAP, acetaminophen] |  |  |  |  |  |  | did not respond |

Source: patent US7781186B2, “Screening methods using normal human liver cell line” (The United States of America as represented by the …, priority 2000, dated 2010)
